Laboratory results from publication PMC9896953, “Structural basis of unisite catalysis of bacterial F0F1-ATPase” (PNAS Nexus, 2022).

How the values were obtained:
[1] = biological target: T1, ΔεCT-F0F1 (F0F1 with C-terminal-truncated ε subunit) (Bacillus sp. PS3, UniProt P07677+P09219); experiment: cryo-EM structure; type: binding; details: unisite conditions (substoichiometric ATP with PEP / pyruvate kinase), 25 °C, pH 8.0; catalytic site of closed βTP
T1 construct: gene atpD; holo complex, ε lacks residues 83-133; derived from pTR19-ASDS, expressed in E. coli, DDM-solubilised, Ni-NTA purified, nucleotide-depleted; PS3 origin is judgement; with ATP synthase gamma chain; ATP synthase epsilon chain; ATP synthase subunit delta; ATP synthase subunit a; ATP synthase subunit b; ATP synthase subunit c

[2] = biological target: T2, wt-F0F1 (wild-type F0F1-ATPase / ATP synthase) (Bacillus sp. PS3, UniProt P07677+P07678+P09219); experiment: cryo-EM structure; type: binding
T2 construct: gene atpD; holo complex α3β3γ1ε1δ1a1b2c10 from pTR19-ASDS, expressed in E. coli DK8, DDM-solubilised, Ni-NTA purified, nucleotide-depleted; with ATP synthase gamma chain; ATP synthase epsilon chain; ATP synthase subunit delta; ATP synthase subunit a; ATP synthase subunit b; ATP synthase subunit c

SMILES | cryo-EM structure [1] | cryo-EM structure ([2]; sample exposed to 4 mM ATPγS, catalytic βDP (ε down), βTP and βDP (ε up)) | cryo-EM structure ([2]; 4 mM ATPγS, ε-down form: catalytic βE and βTP and noncatalytic α sites, also bound in the retracted ε subunit (second site), ε-up form: βE)
Nc1ncnc2c1ncn2[C@@H]1O[C@H](COP(=O)(O)OP(=O)(O)O)[C@@H](O)[C@H]1O [ADP] | revealed a nucleotide density due to ADP at the catalytic site in βTP | “closed in βTP with ADP,” and “open in βDP with ADP” | 
Nc1ncnc2c1ncn2[C@@H]1O[C@H](COP(=O)(O)OP(=O)(O)OP(O)(O)=S)[C@@H](O)[C@H]1O [ATPγS] |  |  | “open in βE with ATPγS,” “closed in βTP with ATPγS,” and “closed in βDP with ADP
